Assay results published in US20260125382A1, “COMPOUNDS FOR INHIBITING OR DEGRADING CDK2 AND/OR CDK9 AND MEDICINAL USE THEREOF” (KOREA RESEARCH INSTITUTE OF CHEMICAL TECHNOLOGY, priority 2022, published 2026).

Columns and labels:
CDK2 = biological target: T1, CDK2 (Homo sapiens, UniProt P24941); test: CDK protein degradation activity (Western blotting), CDK2; assay type: cell-based; conditions: MDA-MB-231 cells, 16 hours, Western blot
T1 construct: endogenous in cells; host or cells: MDA-MB-231
How it was run: (§1)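 MDA-MB-231 cells were treated with compound at final concentrations of 100 nM, 1 μM and 10 μM, or DMSO vehicle, for 16 h. Lysates were resolved by SDS-PAGE and immunoblotted for CDK2, CDK9 and tubulin, with band intensities quantified densitometrically.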

CDK9 = biological target: T2, CDK9 (Homo sapiens, UniProt P50750); test: CDK protein degradation activity (Western blotting), CDK9; assay type: cell-based; conditions: MDA-MB-231 cells, 16 hours, Western blot
T2 construct: endogenous in cells; host or cells: MDA-MB-231
How it was run: as §1

T2 sequence (P50750 whole entry): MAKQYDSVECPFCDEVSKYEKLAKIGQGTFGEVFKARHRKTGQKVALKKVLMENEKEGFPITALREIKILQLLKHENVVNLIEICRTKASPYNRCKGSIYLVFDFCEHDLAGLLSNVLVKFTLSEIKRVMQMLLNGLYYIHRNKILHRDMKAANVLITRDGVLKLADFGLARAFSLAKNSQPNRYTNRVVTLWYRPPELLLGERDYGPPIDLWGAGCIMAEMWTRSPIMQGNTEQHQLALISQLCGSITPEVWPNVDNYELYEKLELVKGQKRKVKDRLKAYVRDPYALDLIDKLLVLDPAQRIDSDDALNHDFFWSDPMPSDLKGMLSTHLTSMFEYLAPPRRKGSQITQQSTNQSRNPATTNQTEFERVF

Row | Compound | Enzyme degradation CDK2 (% remaining) @ 0.1 μM (CDK2) | Enzyme degradation CDK2 (% remaining) @ 1 μM (CDK2) | Enzyme degradation CDK2 (% remaining) @ 10 μM (CDK2) | Enzyme degradation CDK9 (% remaining) @ 0.1 μM (CDK9) | Enzyme degradation CDK9 (% remaining) @ 1 μM (CDK9) | Enzyme degradation CDK9 (% remaining) @ 10 μM (CDK9)
1 | O=C1CC[C@H](N2C(=O)c3ccc(N4CC(C(=O)N5CCC6(CC5)CC(N5CCN(c7ccc(Nc8ncnc9c8ncn9[C@H]8C[C@@H](NC(=O)Cc9ccccc9)C8)cc7)CC5)C6)C4)cc3C2=O)C(=O)N1 [Compound 352, N-((1s,3s)-3-(6-((4-(4-(7-(1-(2-(2,6-dioxopiperidin-3-yl)-1,3-dioxoisoindolin-5-yl)azetidin-3-carbonyl)-7-azaspiro[3.5]nonan-2-yl)piperazin-1-yl)phenyl)amino)-9H-purin-9-yl)cyclobutyl)-2-phenylacetamide] | 90% | 70% | 70% | 20/20/20% | 20/20/20% | 20/20/20%
2 | O=C1CC[C@H](n2nnc3ccc(N4CCC(CN5CCN(c6ccc(Nc7ncnc8c7ncn8C7CC(NC(=O)c8cccc(F)n8)C7)cc6)CC5)CC4)cc3c2=O)C(=O)N1 (stereo partly drawn) [Compound 429, N-((1s,3s)-3-(6-((4-(4-((1-(3-(2,6-dioxopiperidin-3-yl)-4-oxo-3,4-dihydrobenzo[d][1,2,3]triazin-6-yl)piperidin-4-yl)methyl)piperazin-1-yl)phenyl)amino)-9H-purin-9-yl)cyclobutyl)-6-fluoropicolinamide] | 10/10/10% | 10/10/10% | 10/10/10% | 0/0/0% | 0/0/0% | 0/0/0%
3 | O=C1CC[C@H](N2C(=O)c3ccc(N4CCC(CN5CCN(c6ccc(Nc7ncnc8c7ncn8[C@H]7C[C@@H](NC(=O)c8cccc(F)n8)C7)cc6)CC5)CC4)cc3C2=O)C(=O)N1 [Compound 390, N-((1s,3s)-3-(6-((4-(4-((1-(2-(2,6-dioxopiperidin-3-yl)-1,3-dioxoisoindolin-5-yl)piperidin-4-yl)methyl)piperazin-1-yl)phenyl)amino)-9H-purin-9-yl)cyclobutyl)-6-fluoropicolinamide] | 20/20/20% | 20/20/20% | 20/20/20% | 10% | 0% | 0%
4 | O=C1CC[C@H](N2C(=O)c3ccc(NCC(=O)N4CC(N5CCC6(CC5)CC(N5CCN(c7ccc(Nc8ncnc9c8ncn9C8CC(NC(=O)Cc9ccccc9)C8)cc7)CC5)C6)C4)cc3C2=O)C(=O)N1 (stereo partly drawn) [Compound 278, N-((1s,3s)-3-(6-((4-(4-(7-(1-((2-(2,6-dioxopiperidin-3-yl)-1,3-dioxoisoindolin-5-yl)glycyl)azetidin-3-yl)-7-azaspiro[3.5]nonan-2-yl)piperazin-1-yl)phenyl)amino)-9H-purin-9-yl)cyclobutyl)-2-phenylacetamide] | 50/50/50% | 50/50/50% | 50/50/50% | 10% | 0% | 0%
5 | Cc1cccc(C(=O)NC2CC(n3cnc4c(NCc5ccc(N6CCN(CC7CCN(C(=O)CNc8ccc9c(c8)C(=O)N([C@H]8CCC(=O)NC8=O)C9=O)CC7)CC6)cc5)ncnc43)C2)n1 (stereo partly drawn) [Compound 153, N-((1s,3s)-3-(6-((4-(4-((1-((2-(2,6-dioxopiperidin-3-yl)-1,3-dioxoisoindolin-5-yl)glycyl)piperidin-4-yl)methyl)piperazin-1-yl)benzyl)amino)-9H-purin-9-yl)cyclobutyl)-6-methylpicolinamide] | 10/10/10% | 10/10/10% | 10/10/10% | 0/0/0% | 0/0/0% | 0/0/0%
6 | O=C1CCC(N2C(=O)c3ccc(N4CCC(OCCN5CCN(c6ccc(Nc7ncnc8c7ncn8[C@H]7C[C@@H](NC(=O)Cc8ccccc8)C7)cc6)CC5)CC4)cc3C2=O)C(=O)N1 (stereo partly drawn) [Compound 252, N-((1s,3s)-3-(6-((4-(4-(2-((1-(2-(2,6-dioxopiperidin-3-yl)-1,3-dioxoisoindolin-5-yl)piperidin-4-yl)oxy)ethyl)piperazin-1-yl)phenyl)amino)-9H-purin-9-yl)cyclobutyl)-2-phenylacetamide] | 30% | 30% | 50% | 60/60/60% | 60/60/60% | 60/60/60%
7 | Cc1cccc(C(=O)NC2CC(n3cnc4c(Nc5ccc(N6CCN(CC7CCN(C(=O)C8CCN(c9ccc%10c(c9)C(=O)N([C@H]9CCC(=O)NC9=O)C%10=O)CC8)CC7)CC6)cc5)ncnc43)C2)n1 (stereo partly drawn) [Compound 379, N-((1s,3s)-3-(6-((4-(4-((1-(1-(2-(2,6-dioxopiperidin-3-yl)-1,3-dioxoisoindolin-5-yl)piperidin-4-carbonyl)piperidin-4-yl)methyl)piperazin-1-yl)phenyl)amino)-9H-purin-9-yl)cyclobutyl)-6-methylpicolinamide] | 40/40/40% | 40/40/40% | 40/40/40% | 0/0/0% | 0/0/0% | 0/0/0%
8 | O=C1CCC(N2C(=O)c3cc(F)c(N4CCC5(CC4)CC(N4CCN(c6ccc(Nc7ncnc8c7ncn8[C@H]7C[C@@H](NC(=O)c8c(Cl)cccc8Cl)C7)cc6)CC4)C5)cc3C2=O)C(=O)N1 (stereo partly drawn) [Compound 316, 2,6-dichloro-N-((1s,3s)-3-(6-((4-(4-(7-(2-(2,6-dioxopiperidin-3-yl)-6-fluoro-1,3-dioxoisoindolin-5-yl)-7-azaspiro[3.5]nonan-2-yl)piperazin-1-yl)phenyl)amino)-9H-purin-9-yl)cyclobutyl)benzamide] | 30% | 30% | 50% | 0/0/0% | 0/0/0% | 0/0/0%
9 | Cc1cccc(C(=O)NC2CC(n3cnc4c(Nc5ccc(N6CCN(CC7CCN(C(=O)CNc8ccc9c(c8)C(=O)N([C@H]8CCC(=O)NC8=O)C9=O)CC7)CC6)cc5)ncnc43)C2)n1 (stereo partly drawn) [Compound 92, N-((1s,3s)-3-(6-((4-(4-((1-((2-(2,6-dioxopiperidin-3-yl)-1,3-dioxoisoindolin-5-yl)glycyl)piperidin-4-yl)methyl)piperazin-1-yl)phenyl)amino)-9H-purin-9-yl)cyclobutyl)-6-methylpicolinamide] | 40% | 20% | 20% | 10% | 0% | 0%
10 | N-((1s,3s)-3-(6-((4-(4-(3-(4-(1-(2-(2,6-dioxopiperidin-3-yl)-1,3-dioxoisoindolin-5-yl)azetidin-3-carbonyl)piperazin-1-yl)propyl)piperidin-1-yl)phenyl)amino)-9H-purin-9-yl)cyclobutyl)-2-phenylacetamide [Compound 366] | 20% | 0% | 0% | 10/10/10% | 10/10/10% | 10/10/10%
11 | O=C1CC[C@H](n2nnc3ccc(N4CCC5(CC4)CC(N4CCN(c6ccc(Nc7ncnc8c7ncn8[C@H]7C[C@@H](NC(=O)c8c(Cl)cccc8Cl)C7)cc6)CC4)C5)cc3c2=O)C(=O)N1 [Compound 317, 2,6-dichloro-N-((1s,3s)-3-(6-((4-(4-(7-(3-(2,6-dioxopiperidin-3-yl)-4-oxo-3,4-dihydrobenzo[d][1,2,3]triazin-6-yl)-7-azaspiro[3.5]nonan-2-yl)piperazin-1-yl)phenyl)amino)-9H-purin-9-yl)cyclobutyl)benzamide] | 10/10/10% | 10/10/10% | 10/10/10% | 0/0/0% | 0/0/0% | 0/0/0%
12 | O=C1CC[C@@H](c2ccc(OCC(=O)N3CCC4(CC3)CC(N3CCN(c5ccc(Nc6ncnc7c6ncn7[C@H]6C[C@@H](NC(=O)c7c(Cl)cccc7Cl)C6)cc5)CC3)C4)cc2)C(=O)N1 [Compound 442, 2,6-dichloro-N-((1s,3s)-3-(6-((4-(4-(7-(2-(4-(2,6-dioxopiperidin-3-yl)phenoxy)acetyl)-7-azaspiro[3.5]nonan-2-yl)piperazin-1-yl)phenyl)amino)-9H-purin-9-yl)cyclobutyl)benzamide] | 40/40/40% | 40/40/40% | 40/40/40% | 0/0/0% | 0/0/0% | 0/0/0%
